Experimental data reported in ChEMBL document CHEMBL1201861, “Genomics of Drug Sensitity in Cancer screening data, Wellcome Trust Sanger Institute”.
pIC50: −log10 of the molar value.

Columns and labels:
Assay in all cases: cells
Assay type in all cases: functional, cell-based
Conditions in all cases: Homo sapiens
[1] = tested on: NCI-H2170;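 further: cell viability assay measuring growth inhibition of human NCI-H2170 cancer cells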
Description: SANGER: Inhibition of human NCI-H2170 cell growth in a cell viability assay.

[2] = tested on: Becker;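 further: growth inhibition of Becker cells, read out with a cell viability assay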
Description: SANGER: Inhibition of human Becker cell growth in a cell viability assay.

[3] = tested on: LB373-MEL-D;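 further: growth inhibition of the cell line, read out in a cell viability assay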
Description: SANGER: Inhibition of human LB373-MEL-D cell growth in a cell viability assay.

[4] = tested on: NCI-H1650;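 further: growth inhibition of human NCI-H1650 cells measured by a cell viability assay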
Description: SANGER: Inhibition of human NCI-H1650 cell growth in a cell viability assay.

[5] = tested on: SJSA-1;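 further: growth inhibition of human SJSA-1 cells, read out through a cell viability measurement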
Description: SANGER: Inhibition of human SJSA-1 cell growth in a cell viability assay.

[6] = tested on: SNU-5;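 further: cell viability readout used to measure growth inhibition in human NCI-SNU-5 cells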
Description: SANGER: Inhibition of human NCI-SNU-5 cell growth in a cell viability assay.

[7] = tested on: NCI-H446;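 further: growth inhibition of NCI-H446 cells determined by a cell viability assay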
Description: SANGER: Inhibition of human NCI-H446 cell growth in a cell viability assay.

[8] = tested on: no-11;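 further: growth inhibition of human NO-11 cells, read out with a cell viability assay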
Description: SANGER: Inhibition of human no-11 cell growth in a cell viability assay.

[9] = tested on: BE-13;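 further: growth inhibition of human BE-13 cells, measured with a cell viability assay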
Description: SANGER: Inhibition of human BE-13 cell growth in a cell viability assay.

[10] = tested on: A101D;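 further: growth inhibition of the cell line, measured with a viability assay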
Description: SANGER: Inhibition of human A101D cell growth in a cell viability assay.

[11] = tested on: KNS-81-FD;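 further: growth inhibition of KNS-81-FD cells, read out with a cell viability assay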
Description: SANGER: Inhibition of human KNS-81-FD cell growth in a cell viability assay.

[12] = tested on: MMAC-SF;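 further: growth inhibition of human MMAC-SF cells, read out with a cell viability assay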
Description: SANGER: Inhibition of human MMAC-SF cell growth in a cell viability assay.

[13] = tested on: NB5;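 further: growth inhibition of NB5 cells, read out as cell viability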
Description: SANGER: Inhibition of human NB5 cell growth in a cell viability assay.

[14] = tested on: HL-60;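 further: growth inhibition of human HL-60 cells, read out with a cell viability assay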
Description: SANGER: Inhibition of human HL-60 cell growth in a cell viability assay.

[15] = tested on: KE-37;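 further: growth inhibition of KE-37 cells, read out with a cell viability assay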
Description: SANGER: Inhibition of human KE-37 cell growth in a cell viability assay.

[16] = tested on: COR-L23;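 further: cell viability assay measuring how strongly compounds suppress growth of COR-L23 cells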
Description: SANGER: Inhibition of human COR-L23 cell growth in a cell viability assay.

[17] = tested on: ES7;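 further: growth inhibition of cultured human ES7 cells, read out as cell viability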
Description: SANGER: Inhibition of human ES7 cell growth in a cell viability assay.

[18] = tested on: KNS-42;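 further: growth inhibition of KNS-42 cells, read out with a cell viability assay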
Description: SANGER: Inhibition of human KNS-42 cell growth in a cell viability assay.

[19] = tested on: SF-539;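 further: Read-out is a cell viability assay, with IC50 reflecting inhibition of cell growth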
Description: SANGER: Inhibition of human SF539 cell growth in a cell viability assay.

[20] = tested on: COLO-320-HSR;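 further: growth inhibition of COLO-320-HSR cells, determined with a cell viability assay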
Description: SANGER: Inhibition of human COLO-320-HSR cell growth in a cell viability assay.

[21] = tested on: SK-OV-3;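 further: growth inhibition of SK-OV-3 human cells, read out with a cell viability assay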
Description: SANGER: Inhibition of human SK-OV-3 cell growth in a cell viability assay.

[22] = tested on: OVCAR-5;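 further: growth inhibition of human OVCAR-5 cells, read out with a cell viability assay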
Description: SANGER: Inhibition of human OVCAR-5 cell growth in a cell viability assay.

[23] = tested on: EW-18;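 further: growth inhibition of EW-18 cells, read out by a cell viability assay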
Description: SANGER: Inhibition of human EW-18 cell growth in a cell viability assay.

[24] = tested on: BT-474
Description: SANGER: Inhibition of human BT-474 cell growth in a cell viability assay.

[25] = tested on: PSN1;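 further: suppression of growth of human PSN1 cells, read out by a cell viability assay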
Description: SANGER: Inhibition of human PSN1 cell growth in a cell viability assay.

[26] = tested on: LS-123
Description: SANGER: Inhibition of human LS-123 cell growth in a cell viability assay.

[27] = tested on: SK-MEL-2;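 further: growth inhibition of human SK-MEL-2 cells measured with a cell viability assay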
Description: SANGER: Inhibition of human SK-MEL-2 cell growth in a cell viability assay.

[28] = tested on: ES4;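 further: growth inhibition of human ES4 cells, read out by a cell viability assay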
Description: SANGER: Inhibition of human ES4 cell growth in a cell viability assay.

[29] = tested on: KM-H2;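 further: growth inhibition of KM-H2 cells, read out by a cell viability assay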
Description: SANGER: Inhibition of human KM-H2 cell growth in a cell viability assay.

[30] = tested on: LB2241-RCC;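 further: cell viability assay measuring how strongly the cultured human renal carcinoma line is prevented from growing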
Description: SANGER: Inhibition of human LB2241-RCC cell growth in a cell viability assay.

[31] = tested on: SH-4;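 further: growth inhibition of SH-4 cells, read out with a cell viability assay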
Description: SANGER: Inhibition of human SH-4 cell growth in a cell viability assay.

[32] = tested on: MEG-01;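 further: growth inhibition of MEG-01 cells, read out by a cell viability assay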
Description: SANGER: Inhibition of human MEG-01 cell growth in a cell viability assay.

[33] = tested on: D-263MG
Description: SANGER: Inhibition of human D-263MG cell growth in a cell viability assay.

[34] = tested on: EM-2;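 further: growth inhibition of EM-2 cells, read out with a cell viability assay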
Description: SANGER: Inhibition of human EM-2 cell growth in a cell viability assay.

[35] = tested on: VA-ES-BJ;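 further: growth inhibition of the VA-ES-BJ cell line, read out by a cell viability assay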
Description: SANGER: Inhibition of human VA-ES-BJ cell growth in a cell viability assay.

[36] = tested on: IST-MEL1;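 further: growth inhibition of the cell line, read out with a cell viability assay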
Description: SANGER: Inhibition of human IST-MEL1 cell growth in a cell viability assay.

[37] = tested on: GOTO;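 further: growth inhibition of GOTO cells, read out by a cell viability assay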
Description: SANGER: Inhibition of human GOTO cell growth in a cell viability assay.

[38] = tested on: NB10;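 further: growth inhibition of NB10 cells, read out by a cell viability assay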
Description: SANGER: Inhibition of human NB10 cell growth in a cell viability assay.

[39] = tested on: NCI-H1299;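 further: growth inhibition of human NCI-H1299 cells, read out by a cell viability assay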
Description: SANGER: Inhibition of human NCI-H1299 cell growth in a cell viability assay.

[40] = tested on: RXF 393;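 further: growth inhibition of human RXF 393 cells, read out with a cell viability assay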
Description: SANGER: Inhibition of human RXF393 cell growth in a cell viability assay.

[41] = tested on: CP66-MEL;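 further: growth inhibition of CP66-MEL cells determined in a cell viability assay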
Description: SANGER: Inhibition of human CP66-MEL cell growth in a cell viability assay.

[42] = tested on: GI-ME-N;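 further: growth inhibition of human GI-ME-N cells, read out with a cell viability assay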
Description: SANGER: Inhibition of human GI-ME-N cell growth in a cell viability assay.

[43] = tested on: L-363
Description: SANGER: Inhibition of human L-363 cell growth in a cell viability assay.

[44] = tested on: NKM-1;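 further: growth inhibition of NKM-1 cells, read out with a cell viability assay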
Description: SANGER: Inhibition of human NKM-1 cell growth in a cell viability assay.

[45] = tested on: KYSE-410;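 further: growth inhibition of KYSE-410 cells, measured through a cell viability readout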
Description: SANGER: Inhibition of human KYSE-410 cell growth in a cell viability assay.

[46] = tested on: ALL-PO;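 further: growth inhibition of ALL-PO cells, read out by a cell viability assay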
Description: SANGER: Inhibition of human ALL-PO cell growth in a cell viability assay.

[47] = tested on: NTERA-2-cl-D1;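 further: inhibition of cell growth, measured with a cell viability assay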
Description: SANGER: Inhibition of human NTERA-S-cl-D1 cell growth in a cell viability assay.

[48] = tested on: MN-60;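 further: growth inhibition of the MN-60 cell line, determined with a cell viability assay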
Description: SANGER: Inhibition of human MN-60 cell growth in a cell viability assay.

[49] = tested on: TE-10;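 further: growth inhibition of TE-10 cells, measured by a cell viability assay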
Description: SANGER: Inhibition of human TE-10 cell growth in a cell viability assay.

[50] = tested on: AM-38;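 further: growth inhibition of AM-38 cells of human origin, read out by a cell viability assay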
Description: SANGER: Inhibition of human AM-38 cell growth in a cell viability assay.

[51] = tested on: A2058;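 further: reduction of A2058 cell growth, read out with a viability assay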
Description: SANGER: Inhibition of human A2058 cell growth in a cell viability assay.

[52] = tested on: HT
Description: SANGER: Inhibition of human HT cell growth in a cell viability assay.

[53] = tested on: UACC-257
Description: SANGER: Inhibition of human UACC-257 cell growth in a cell viability assay.

[54] = tested on: COLO-800
Description: SANGER: Inhibition of human COLO-800 cell growth in a cell viability assay.

[55] = tested on: P12-Ichikawa
[56] = tested on: SF-268
Description: SANGER: Inhibition of human SF268 cell growth in a cell viability assay.

[57] = tested on: GT3TKB
Description: SANGER: Inhibition of human GT3TKB cell growth in a cell viability assay.

[58] = tested on: ML-2
Description: SANGER: Inhibition of human ML-2 cell growth in a cell viability assay.

[59] = tested on: RMG-I
Description: SANGER: Inhibition of human RMG-I cell growth in a cell viability assay.

[60] = tested on: A2780
Description: SANGER: Inhibition of human A2780 cell growth in a cell viability assay.

[61] = tested on: K562
Description: SANGER: Inhibition of human K-562 cell growth in a cell viability assay.

[62] = tested on: EW-11
Description: SANGER: Inhibition of human EW-11 cell growth in a cell viability assay.

[63] = tested on: IST-MES1
Description: SANGER: Inhibition of human IST-MES1 cell growth in a cell viability assay.

[64] = tested on: DU-4475
Description: SANGER: Inhibition of human DU-4475 cell growth in a cell viability assay.

Measured: pIC50

NC(=O)c1ncn([C@@H]2O[C@H](COP(=O)(O)O)[C@@H](O)[C@H]2O)c1N
3.02: [5]
3.35: [32]
3.09: [35]
3.27: [15]
3.14: [16]
2.86: [30]
3.44: [9]
3.12: [46]
2.96: [62]
3.00: [52]
3.16: [26]
2.99: [50]
3.64: [34]
2.93: [29]
3.11: [20]
2.83: [55]
3.15: [40]
3.43: [14]
2.82: [49]
2.75: [28]
3.75: [43] | [44]
2.73: [60]
2.71: [25]
not listed: [63] | [64]
< 2.70: all other assays above

O=c1cc(N2CCOCC2)oc2c(-c3cccc4c3sc3ccccc34)cccc12
5.86: [14]
not listed: [6] | [23] | [58]
< 5.70: all other assays above
